Measured values as given in paper PMC7529893, “Structural basis for substrate recognition and chemical inhibition of oncogenic MAGE ubiquitin ligases” (Nature Communications, 2020).

Molecular target: T1, MAGE-A11:PCF11 interaction (GST-MAGE-A11 and FAM-PCF11_4) (Homo sapiens, UniProt P43364)
T1 construct: GST-MAGE-A11 MHD (human MAGE-A11 MHD amino acid 218-429); made in house; host or cells: E. coli BL21(DE3)
T1 sequence (P43364 218-429): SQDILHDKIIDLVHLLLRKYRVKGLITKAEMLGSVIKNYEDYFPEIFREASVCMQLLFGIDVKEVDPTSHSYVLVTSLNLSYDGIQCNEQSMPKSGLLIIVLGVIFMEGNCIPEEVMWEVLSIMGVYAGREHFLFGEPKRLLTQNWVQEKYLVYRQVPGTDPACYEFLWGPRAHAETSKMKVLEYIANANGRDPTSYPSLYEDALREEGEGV
Assay: TR-FRET primary / single point screen at 15 µM
Format: binding
How it was run: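 TR-FRET 520/490 nm emission ratio was read after 90 min at room temperature. Wells held 5 nM GST-MAGE-A11, 5 nM Tb-anti-GST, 200 nM FAM-PCF11_4 and 15 µM compound in Tris pH 7.5 buffer with MgCl2, BSA and DTT. %Inhibition was scaled to DMSO and minus-MAGE-A11 controls.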

[1] = single point TR-FRET screening of quinoline compounds against MAGE-A11:PCF11, 15 µM
[2] = single point TR-FRET screening of 797 quinoline compounds against MAGE-A11:PCF11

SMILES | percent inhibition (TR-FRET) [1] | percent inhibition (TR-FRET) [2]
CCCN(CCCNc1ccnc2cc(Cl)ccc12)CCOCc1ccccc1 [SJ000357577] | -13.1805 | –
CC(C)(C)CCN(CCCNc1ccnc2cc(Cl)ccc12)Cc1ccccc1 [SJ000357578] | 25.6873 | –
CCCCN(CCCNc1ccnc2cc(Cl)ccc12)Cc1ccccc1 [SJ000357579] | 19.3068 | –
Clc1ccc2c(NCCCN(CCc3ccccc3)Cc3ccccc3)ccnc2c1 [SJ000357580] | 14.4057 | –
Clc1ccc2c(NCCCN(CCOCc3ccccc3)Cc3ccccc3)ccnc2c1 [SJ000357583] | 13.2411 | –
CCCN(CCCNc1ccnc2cc(Cl)ccc12)Cc1cccc2c1OCO2 [SJ000357594] | 18.1434 | –
CCCN(CCCNc1ccnc2cc(Cl)ccc12)Cc1ccccc1OC(F)(F)F [SJ000357595] | -21.8698 | –
CCCN(CCCNc1ccnc2cc(Cl)ccc12)Cc1cc(F)cc(F)c1O [SJ000357597] | 15.9573 | –
Clc1ccc2c(NCCCN(Cc3ccccc3)Cc3cccc4c3OCO4)ccnc2c1 [SJ000357598] | 3.49 | –
FC(F)(F)Oc1ccccc1CN(CCCNc1ccnc2cc(Cl)ccc12)Cc1ccccc1 [SJ000357599] | 19.7634 | –
COc1ccc2nc3cc(Cl)ccc3c(NCCCNCc3ccc[nH]3)c2c1 [SJ000361084] | 0.9854 | –
COc1ccc2nc3cc(Cl)ccc3c(NCCCNCc3ccc4c(c3)OCO4)c2c1 [SJ000361085] | – | -363.307
COc1ccc2nc3cc(Cl)ccc3c(NCCCNCc3ccccc3)c2c1 [SJ000361086] | – | -432.435
COc1ccc2nc3cc(Cl)ccc3c(NCCCNCC3CC3)c2c1 [SJ000361087] | – | -502.358
COc1ccc2nc3cc(Cl)ccc3c(NCCCNCc3cccs3)c2c1 [SJ000361088] | – | -453.536
COc1ccc2nc3cc(Cl)ccc3c(NCCCNCc3ccc(C)o3)c2c1 [SJ000361089] | – | -229.025
COc1ccc2nc3cc(Cl)ccc3c(NCCCNCC3CCCCC3)c2c1 [SJ000361090] | – | -411.15
COc1ccc2nc3cc(Cl)ccc3c(NCCCNCc3cc(F)ccc3F)c2c1 [SJ000361091] | – | -327.201
CCC(CC)CNCCCNc1c2ccc(Cl)cc2nc2ccc(OC)cc12 [SJ000361092] | – | -427.368

SMILES | percent inhibition (TR-FRET) [1] | percent inhibition (TR-FRET) [2]
CCC(C)CNCCCNc1c2ccc(Cl)cc2nc2ccc(OC)cc12 (stereo not shown) [SJ000361093] | – | -451.494
COc1ccc2nc3cc(Cl)ccc3c(NCCCNCc3sccc3C)c2c1 [SJ000361094] | – | -321.32
COc1ccc2nc3cc(Cl)ccc3c(NCCCNCc3ccccc3C(F)(F)F)c2c1 [SJ000361095] | – | -169.468
CCCNCCCNc1c2ccc(Cl)cc2nc2ccc(OC)cc12 [SJ000361096] | – | -498.476
CCCCCCNCCCNc1c2ccc(Cl)cc2nc2ccc(OC)cc12 [SJ000361097] | – | -281.691
COc1ccc2nc3cc(Cl)ccc3c(NCCCNCCC(C)SC)c2c1 (stereo not shown) [SJ000361098] | – | -514.546
COc1ccc2nc3cc(Cl)ccc3c(NCCCNCc3c4ccccc4cc4ccccc34)c2c1 [SJ000361099] | -3.728 | –
Clc1ccc2c(NCCCNCC3CC3)ccnc2c1 [SJ000361101] | 11.4651 | –
Clc1ccc2c(NCCCNCC3CCCCC3)ccnc2c1 [SJ000361102] | 15.626 | –
CCC(CC)CNCCCNc1ccnc2cc(Cl)ccc12 [SJ000361103] | 16.5535 | –
CCC(C)CNCCCNc1ccnc2cc(Cl)ccc12 (stereo not shown) [SJ000361104] | 9.822 | –
FC(F)(F)c1ccc2c(NCCCNCc3ccc[nH]3)ccnc2c1 [SJ000361105] | 41.6887 | –
FC(F)(F)c1ccc2c(NCCCNCC3CC3)ccnc2c1 [SJ000361108] | 22.8076 | –
Cc1ccc(CNCCCNc2ccnc3cc(C(F)(F)F)ccc23)o1 [SJ000361109] | 14.4523 | –
FC(F)(F)c1ccc2c(NCCCNCC3CCCCC3)ccnc2c1 [SJ000361110] | 27.1172 | –
CCC(CC)CNCCCNc1ccnc2cc(C(F)(F)F)ccc12 [SJ000361111] | 24.3255 | –
CCC(C)CNCCCNc1ccnc2cc(C(F)(F)F)ccc12 (stereo not shown) [SJ000361112] | 18.4697 | –
FC(F)(F)c1ccc2c(NCCCNCc3ccco3)ccnc2c1 [SJ000361113] | 18.0466 | –
